US9084828B2, “Oligomer-protein tyrosine kinase inhibitor conjugates” (Nektar Therapeutics, priority 2009, dated 2015)

Assays:
Format in all cases: biochemical
CaMKII (gamma) = CaMKII (gamma) (Homo sapiens, UniProt Q13555); experiment: Activity against various protein tyrosine kinases: CaMKII (gamma)
AurA = molecular target: T1, AurA (Homo sapiens, UniProt O14965); experiment: Activity against various protein tyrosine kinases: AurA
T1 sequence (O14965 1-403): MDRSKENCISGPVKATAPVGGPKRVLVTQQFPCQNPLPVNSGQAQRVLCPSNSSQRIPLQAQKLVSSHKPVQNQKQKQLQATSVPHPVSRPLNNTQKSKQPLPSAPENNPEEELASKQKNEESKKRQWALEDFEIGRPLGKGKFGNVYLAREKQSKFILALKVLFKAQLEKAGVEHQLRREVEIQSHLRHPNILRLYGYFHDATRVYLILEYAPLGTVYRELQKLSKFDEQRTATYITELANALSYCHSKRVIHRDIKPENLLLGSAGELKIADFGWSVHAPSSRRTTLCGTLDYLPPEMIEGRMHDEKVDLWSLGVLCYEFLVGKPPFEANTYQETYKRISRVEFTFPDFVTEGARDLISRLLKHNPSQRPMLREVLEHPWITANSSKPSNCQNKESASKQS

AurC = molecular target: T2, AurC (Homo sapiens, UniProt Q9UQB9); experiment: Activity against various protein tyrosine kinases: AurC
T2 sequence (Q9UQB9 1-309): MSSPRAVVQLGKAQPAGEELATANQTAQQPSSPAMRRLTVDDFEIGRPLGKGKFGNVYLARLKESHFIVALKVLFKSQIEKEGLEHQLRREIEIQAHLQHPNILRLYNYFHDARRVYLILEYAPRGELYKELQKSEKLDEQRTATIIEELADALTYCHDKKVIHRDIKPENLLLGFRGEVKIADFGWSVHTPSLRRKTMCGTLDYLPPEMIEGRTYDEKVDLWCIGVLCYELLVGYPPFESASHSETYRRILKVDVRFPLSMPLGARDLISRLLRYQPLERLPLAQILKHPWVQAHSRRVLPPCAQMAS

ABL(Q252H) = ABL(Q252H) (Homo sapiens, UniProt P00519, Q252H); experiment: Activity against various protein tyrosine kinases: ABL(Q252H)
Experimental: (§1) Using techniques know those of ordinary skill in the art, compounds were tested for activity against various protein tyrosine kinases.

EGFR = EGFR (Homo sapiens, UniProt P00533); experiment: Activity against various protein tyrosine kinases: EGFR
FGFR2(N549H) = FGFR2(N549H) (Homo sapiens, UniProt P21802, N549H); experiment: Activity against various protein tyrosine kinases: FGFR2(N549H)
ABL(H396P) = ABL(H396P) (Homo sapiens, UniProt P00519, H396P); experiment: Activity against various protein tyrosine kinases: ABL(H396P)
Experimental: as §1

AurB = AurB (Homo sapiens, UniProt Q96GD4); experiment: Activity against various protein tyrosine kinases: AurB
AKT3 = AKT3 (Homo sapiens, UniProt Q9Y243); experiment: Activity against various protein tyrosine kinases: AKT3
CHK2 = CHK2 (Homo sapiens, UniProt O96017); experiment: Activity against various protein tyrosine kinases: CHK2
Sequence of CHK2 (O96017 whole entry, species assumed): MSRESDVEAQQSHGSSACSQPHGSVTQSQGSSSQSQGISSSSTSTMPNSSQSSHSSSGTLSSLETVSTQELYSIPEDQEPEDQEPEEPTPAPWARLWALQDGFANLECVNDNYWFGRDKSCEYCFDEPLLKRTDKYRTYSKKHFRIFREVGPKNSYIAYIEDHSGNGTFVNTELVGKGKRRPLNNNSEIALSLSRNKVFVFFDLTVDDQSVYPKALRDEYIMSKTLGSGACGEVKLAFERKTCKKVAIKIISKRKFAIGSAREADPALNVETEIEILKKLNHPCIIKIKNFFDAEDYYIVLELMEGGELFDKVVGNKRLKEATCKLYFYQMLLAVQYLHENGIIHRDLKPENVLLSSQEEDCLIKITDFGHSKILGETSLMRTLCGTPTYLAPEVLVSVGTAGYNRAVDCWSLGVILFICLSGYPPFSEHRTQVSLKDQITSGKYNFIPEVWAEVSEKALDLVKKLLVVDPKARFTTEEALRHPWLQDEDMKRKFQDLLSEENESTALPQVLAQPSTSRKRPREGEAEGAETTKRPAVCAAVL

LCK = LCK (Homo sapiens, UniProt P06239); experiment: Activity against various protein tyrosine kinases: LCK
PDGFR_alpha = PDGFR_alpha (Homo sapiens, UniProt P16234); experiment: Activity against various protein tyrosine kinases: PDGFR_alpha
Sequence of PDGFR_alpha (P16234 24-1089, species assumed): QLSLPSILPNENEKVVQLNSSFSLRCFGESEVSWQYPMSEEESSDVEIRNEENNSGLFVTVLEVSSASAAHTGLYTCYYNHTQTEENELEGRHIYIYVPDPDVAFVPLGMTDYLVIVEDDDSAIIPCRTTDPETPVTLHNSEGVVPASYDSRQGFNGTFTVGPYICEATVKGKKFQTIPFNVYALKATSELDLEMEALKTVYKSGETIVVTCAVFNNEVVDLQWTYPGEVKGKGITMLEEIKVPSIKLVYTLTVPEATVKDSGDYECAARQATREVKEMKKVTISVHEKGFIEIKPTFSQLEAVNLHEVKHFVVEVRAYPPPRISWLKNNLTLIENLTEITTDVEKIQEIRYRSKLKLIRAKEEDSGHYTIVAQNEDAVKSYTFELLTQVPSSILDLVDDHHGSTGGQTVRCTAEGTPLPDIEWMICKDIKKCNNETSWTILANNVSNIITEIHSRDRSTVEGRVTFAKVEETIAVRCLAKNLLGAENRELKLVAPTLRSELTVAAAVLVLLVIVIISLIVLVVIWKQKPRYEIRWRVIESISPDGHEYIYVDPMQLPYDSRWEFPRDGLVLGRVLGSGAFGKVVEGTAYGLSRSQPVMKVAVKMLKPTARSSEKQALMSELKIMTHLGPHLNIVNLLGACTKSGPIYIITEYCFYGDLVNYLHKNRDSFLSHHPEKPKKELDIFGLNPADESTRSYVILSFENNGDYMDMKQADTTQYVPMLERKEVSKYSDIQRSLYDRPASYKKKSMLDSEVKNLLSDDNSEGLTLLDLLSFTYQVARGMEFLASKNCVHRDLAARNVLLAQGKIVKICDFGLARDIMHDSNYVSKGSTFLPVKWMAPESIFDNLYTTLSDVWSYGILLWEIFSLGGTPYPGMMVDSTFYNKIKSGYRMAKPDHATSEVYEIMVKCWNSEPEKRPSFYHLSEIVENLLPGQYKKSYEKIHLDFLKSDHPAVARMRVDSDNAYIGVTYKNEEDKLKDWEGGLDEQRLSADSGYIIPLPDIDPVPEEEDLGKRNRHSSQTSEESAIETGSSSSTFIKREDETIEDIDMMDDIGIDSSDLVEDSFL

p38-beta2 = p38-beta2 (Homo sapiens, UniProt Q15759); experiment: Activity against various protein tyrosine kinases: p38-beta2
Sequence of p38-beta2 (Q15759 whole entry): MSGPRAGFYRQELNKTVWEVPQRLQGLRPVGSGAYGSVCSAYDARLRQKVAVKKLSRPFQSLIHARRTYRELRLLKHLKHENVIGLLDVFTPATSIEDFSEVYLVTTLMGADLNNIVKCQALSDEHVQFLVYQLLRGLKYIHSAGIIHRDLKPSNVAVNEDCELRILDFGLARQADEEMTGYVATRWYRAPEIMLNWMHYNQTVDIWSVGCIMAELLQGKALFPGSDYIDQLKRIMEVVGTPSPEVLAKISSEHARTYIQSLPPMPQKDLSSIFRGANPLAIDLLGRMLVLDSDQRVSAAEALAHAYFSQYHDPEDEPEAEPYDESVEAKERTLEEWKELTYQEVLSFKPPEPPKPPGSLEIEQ

Fer = Fer (Homo sapiens, UniProt P16591); experiment: Activity against various protein tyrosine kinases: Fer
Sequence of Fer (P16591 whole entry, species assumed): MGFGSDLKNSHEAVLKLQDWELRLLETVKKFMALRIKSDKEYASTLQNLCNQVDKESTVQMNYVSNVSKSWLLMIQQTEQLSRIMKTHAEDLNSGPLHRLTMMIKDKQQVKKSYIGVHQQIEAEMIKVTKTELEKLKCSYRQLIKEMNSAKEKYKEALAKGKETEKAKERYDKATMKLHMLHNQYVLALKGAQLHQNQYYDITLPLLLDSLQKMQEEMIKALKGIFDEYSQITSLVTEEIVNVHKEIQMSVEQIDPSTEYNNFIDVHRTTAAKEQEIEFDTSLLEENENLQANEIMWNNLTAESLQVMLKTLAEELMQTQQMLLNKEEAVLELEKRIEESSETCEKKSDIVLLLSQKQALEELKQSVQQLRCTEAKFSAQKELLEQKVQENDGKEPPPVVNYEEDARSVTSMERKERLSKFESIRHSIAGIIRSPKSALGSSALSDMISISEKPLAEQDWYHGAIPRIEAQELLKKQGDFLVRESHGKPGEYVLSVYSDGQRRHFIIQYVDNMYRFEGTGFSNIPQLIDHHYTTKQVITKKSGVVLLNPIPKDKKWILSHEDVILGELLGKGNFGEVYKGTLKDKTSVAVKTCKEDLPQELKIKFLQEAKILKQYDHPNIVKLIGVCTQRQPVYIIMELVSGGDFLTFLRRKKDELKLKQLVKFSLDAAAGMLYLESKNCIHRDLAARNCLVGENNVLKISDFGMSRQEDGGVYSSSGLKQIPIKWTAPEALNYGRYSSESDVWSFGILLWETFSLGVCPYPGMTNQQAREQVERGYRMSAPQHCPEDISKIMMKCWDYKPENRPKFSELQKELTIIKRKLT

Erk2 = Erk2 (Homo sapiens, UniProt P28482); experiment: Activity against various protein tyrosine kinases: Erk2
Sequence of Erk2 (P28482 whole entry, species assumed): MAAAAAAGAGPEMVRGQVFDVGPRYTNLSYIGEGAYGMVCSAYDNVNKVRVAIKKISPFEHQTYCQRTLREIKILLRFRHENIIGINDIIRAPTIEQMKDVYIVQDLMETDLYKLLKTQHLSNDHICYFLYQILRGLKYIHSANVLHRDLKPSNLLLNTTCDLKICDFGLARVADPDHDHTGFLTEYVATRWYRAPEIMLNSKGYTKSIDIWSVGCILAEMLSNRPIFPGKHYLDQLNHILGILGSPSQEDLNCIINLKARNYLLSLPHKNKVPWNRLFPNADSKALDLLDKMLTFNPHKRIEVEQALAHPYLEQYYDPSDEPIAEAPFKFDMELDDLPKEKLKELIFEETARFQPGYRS

p38-delta = molecular target: T3, p38-delta (Homo sapiens, UniProt O15264); experiment: Activity against various protein tyrosine kinases: p38-delta
T3 sequence (O15264 1-365): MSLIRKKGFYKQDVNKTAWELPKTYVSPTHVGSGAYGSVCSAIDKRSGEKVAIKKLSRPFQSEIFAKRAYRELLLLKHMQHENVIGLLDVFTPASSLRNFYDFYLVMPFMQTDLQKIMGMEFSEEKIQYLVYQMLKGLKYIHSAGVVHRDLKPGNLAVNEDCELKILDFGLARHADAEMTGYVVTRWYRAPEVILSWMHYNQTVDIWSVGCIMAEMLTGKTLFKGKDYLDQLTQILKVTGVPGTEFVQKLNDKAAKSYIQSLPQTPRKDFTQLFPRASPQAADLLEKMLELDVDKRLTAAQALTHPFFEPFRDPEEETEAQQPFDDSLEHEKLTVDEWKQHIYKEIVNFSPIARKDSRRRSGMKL

MET = MET (Homo sapiens, UniProt P08581); experiment: Activity against various protein tyrosine kinases: MET
Sequence of MET (P08581 25-1390): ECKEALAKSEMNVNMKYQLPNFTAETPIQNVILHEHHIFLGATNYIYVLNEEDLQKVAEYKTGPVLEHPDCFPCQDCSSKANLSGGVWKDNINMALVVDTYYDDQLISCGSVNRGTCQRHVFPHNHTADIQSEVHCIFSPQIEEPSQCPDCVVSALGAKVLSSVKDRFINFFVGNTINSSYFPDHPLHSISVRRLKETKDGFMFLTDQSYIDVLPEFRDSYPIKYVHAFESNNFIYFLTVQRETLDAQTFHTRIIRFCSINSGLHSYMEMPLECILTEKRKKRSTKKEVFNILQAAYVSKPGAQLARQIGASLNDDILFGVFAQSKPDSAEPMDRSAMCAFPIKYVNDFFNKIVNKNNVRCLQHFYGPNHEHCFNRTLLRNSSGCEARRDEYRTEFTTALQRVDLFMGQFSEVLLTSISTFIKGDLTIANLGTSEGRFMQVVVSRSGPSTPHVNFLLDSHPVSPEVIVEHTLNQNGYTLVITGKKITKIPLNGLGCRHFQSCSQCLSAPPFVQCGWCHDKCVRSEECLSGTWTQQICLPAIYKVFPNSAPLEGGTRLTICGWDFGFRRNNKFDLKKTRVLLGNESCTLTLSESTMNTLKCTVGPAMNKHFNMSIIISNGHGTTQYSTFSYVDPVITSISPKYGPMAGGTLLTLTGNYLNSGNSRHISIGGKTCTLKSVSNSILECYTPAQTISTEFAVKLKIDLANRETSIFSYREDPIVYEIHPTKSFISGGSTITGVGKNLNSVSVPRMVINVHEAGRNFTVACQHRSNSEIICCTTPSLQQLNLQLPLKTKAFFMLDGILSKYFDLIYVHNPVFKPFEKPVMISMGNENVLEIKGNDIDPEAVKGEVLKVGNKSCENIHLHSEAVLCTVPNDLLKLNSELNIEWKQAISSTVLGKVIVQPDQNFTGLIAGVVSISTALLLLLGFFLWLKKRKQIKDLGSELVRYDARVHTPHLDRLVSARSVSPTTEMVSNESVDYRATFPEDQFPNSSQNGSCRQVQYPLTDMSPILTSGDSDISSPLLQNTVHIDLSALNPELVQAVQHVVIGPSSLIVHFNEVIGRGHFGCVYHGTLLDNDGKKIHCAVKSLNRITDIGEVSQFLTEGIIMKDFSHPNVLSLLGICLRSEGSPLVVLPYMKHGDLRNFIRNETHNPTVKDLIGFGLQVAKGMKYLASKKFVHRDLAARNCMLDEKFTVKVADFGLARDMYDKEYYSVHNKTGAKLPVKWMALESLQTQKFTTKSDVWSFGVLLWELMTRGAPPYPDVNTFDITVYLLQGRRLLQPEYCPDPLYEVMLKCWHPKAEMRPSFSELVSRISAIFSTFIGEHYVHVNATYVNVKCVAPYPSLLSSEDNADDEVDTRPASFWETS

LYN = LYN (Homo sapiens, UniProt P07948); experiment: Activity against various protein tyrosine kinases: LYN
Sequence of LYN (P07948 whole entry, species assumed): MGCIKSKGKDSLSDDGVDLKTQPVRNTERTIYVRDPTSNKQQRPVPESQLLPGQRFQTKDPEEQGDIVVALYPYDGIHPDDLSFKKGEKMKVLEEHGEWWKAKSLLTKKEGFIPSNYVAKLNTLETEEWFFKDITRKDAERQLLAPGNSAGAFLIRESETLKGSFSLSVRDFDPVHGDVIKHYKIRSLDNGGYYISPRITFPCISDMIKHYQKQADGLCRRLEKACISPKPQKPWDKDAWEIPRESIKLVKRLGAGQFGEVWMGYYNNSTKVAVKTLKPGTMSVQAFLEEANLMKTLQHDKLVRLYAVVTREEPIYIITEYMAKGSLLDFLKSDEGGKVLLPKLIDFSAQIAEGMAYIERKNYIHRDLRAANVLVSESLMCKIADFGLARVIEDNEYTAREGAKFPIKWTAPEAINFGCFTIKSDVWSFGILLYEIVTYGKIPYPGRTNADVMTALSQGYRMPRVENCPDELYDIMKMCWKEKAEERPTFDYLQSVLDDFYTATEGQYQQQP

SMILES | % Inhibition at 10 nM (CaMKII (gamma)) | % Inhibition at 1 μM (CaMKII (gamma)) | % Inhibition at 10 nM (AurA) | % Inhibition at 1 μM (AurA) | % Inhibition at 10 nM (AurC) | % Inhibition at 1 μM (AurC) | % Inhibition at 10 nM (ABL(Q252H)) | % Inhibition at 1 μM (ABL(Q252H)) | % Inhibition at 10 nM (EGFR) | % Inhibition at 1 μM (EGFR) | % Inhibition at 10 nM (FGFR2(N549H)) | % Inhibition at 1 μM (FGFR2(N549H)) | % Inhibition at 10 nM (ABL(H396P)) | % Inhibition at 1 μM (ABL(H396P)) | % Inhibition at 10 nM (AurB) | % Inhibition at 1 μM (AurB) | % Inhibition at 10 nM (AKT3) | % Inhibition at 1 μM (AKT3) | % Inhibition at 10 nM (CHK2) | % Inhibition at 1 μM (CHK2) | further results
COCCOCCOCCNC(=O)OCCN1CCN(c2cc(Nc3ncc(C(=O)Nc4c(C)cccc4Cl)s3)nc(C)n2)CC1 [mPEG3-NHCOO-Dasatinib] | 2% | 2% | −7% | 19% | −1% | 0% | 98% | 99% | 3% | 76% | 7% | 75% | 99% | 99% | −1% | 4% | 0% | −1% | 1% | 11% | % Inhibition at 10 nM (LCK): 97%; % Inhibition at 1 μM (LCK): 98%; % Inhibition at 10 nM (PDGFR_alpha): 58%; % Inhibition at 1 μM (PDGFR_alpha): 99%; % Inhibition at 10 nM (p38-beta2): 3%; % Inhibition at 1 μM (p38-beta2): 48%; % Inhibition at 10 nM (Fer): −4%; % Inhibition at 1 μM (Fer): 5%; % Inhibition at 10 nM (Erk2): 6%; % Inhibition at 1 μM (Erk2): 11%; % Inhibition at 10 nM (p38-delta): 0%; % Inhibition at 1 μM (p38-delta): 2%; % Inhibition at 10 nM (MET): 3%; % Inhibition at 1 μM (MET): 0%; % Inhibition at 10 nM (LYN): 99%; % Inhibition at 1 μM (LYN): 99%
COCCOCCOCCOCCOCCOCCOCCNC(=O)OCCN1CCN(c2cc(Nc3ncc(C(=O)Nc4c(C)cccc4Cl)s3)nc(C)n2)CC1 [mPEG7-NHCOO-Dasatinib] | 6% | 3% | 3% | 28% | 0% | 2% | 99% | 99% | 6% | 62% | 5% | 63% | 99% | 99% | 0% | 4% | −3% | −2% | 2% | 1% | % Inhibition at 10 nM (LCK): 98%; % Inhibition at 1 μM (LCK): 98%; % Inhibition at 10 nM (PDGFR_alpha): 46%; % Inhibition at 1 μM (PDGFR_alpha): 98%; % Inhibition at 10 nM (p38-beta2): 0%; % Inhibition at 1 μM (p38-beta2): 35%; % Inhibition at 10 nM (Fer): −2%; % Inhibition at 1 μM (Fer): 5%; % Inhibition at 10 nM (Erk2): 3%; % Inhibition at 1 μM (Erk2): 2%; % Inhibition at 10 nM (p38-delta): 0%; % Inhibition at 1 μM (p38-delta): 0%; % Inhibition at 10 nM (MET): 1%; % Inhibition at 1 μM (MET): 1%; % Inhibition at 10 nM (LYN): 98%; % Inhibition at 1 μM (LYN): 98%
